Experimental data: the METLIN SMRT retention time set (Domingo-Almenara et al. 2019)

Assay: gradient 5% acetonitrile 3 min, to 50% in 2 min, to 85% in 15 min, held 3 min, 100 µL/min
Conditions: column: Zorbax Extend-C18 2.1 x 50 mm; eluents: water / acetonitrile, 0.1% formic acid
Procedure, shortened: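 Retention times of pure standards were taken from adduct peaks that were selected by computer and manually inspected. Over 3 months, mixtures of ~100 molecules were run by HPLC–quadrupole time-of-flight mass spectrometry in positive and negative ionization mode. The Zorbax Extend-C18 column (2.1 × 50 mm, 1.8 μm) ran at 100 μL/min in water and acetonitrile, each containing 0.1% formic acid, with 40 μL dead volume and 900 μL dwell volume.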
For `Cc1c(N2CCC(C(=O)N3CCN(c4ccccn4)CC3)CC2)c(=O)n(C)c(=O)n1-c1ccccc1`, the RP-LC retention time was 618 s. For `CCN1C(=O)c2cccnc2Sc2cc(CNC(=O)c3cnccn3)ccc21`, the RP-LC retention time was 683 s. For `CCCNC(=O)C1CCCN(c2ccc(SCC(=O)Nc3cc(Cl)ccc3C)nn2)C1` (centres undefined), the RP-LC retention time was 720 s. With `Cn1c(=O)c(N2CCN(C(=O)c3cccc(F)c3)CC2)nc2ccccc21` the RP-LC retention time was 864 s. Compound `Cc1noc([C@@H]2CN(C(=O)CC(C)(C)C)C[C@H]2CO)n1` has an RP-LC retention time of 644 s. In the case of `CC(C)C(=O)N1CCCC1c1nc(CCOCC2CC2)no1` (centres undefined), the RP-LC retention time was 733 s. With `NC1=NC(c2ccc(Cl)cc2)N(c2ccc(S(N)(=O)=O)cc2)C(N)=N1` (centres undefined) the RP-LC retention time was 629 s. `COCCc1noc(C2Cc3ccccc3N2C(=O)Nc2cc(OC)cc(OC)c2)n1` (centres undefined) showed an RP-LC retention time of 929 s. `CC(C)Cc1csc(-c2csc(S(=O)(=O)Nc3cccc(Cl)c3)c2)n1` gave an RP-LC retention time of 1230 s. For `COC(=O)c1cccc(NC(=O)c2cnc(-c3ccc(F)cc3)nc2-c2ccncc2)c1`, the RP-LC retention time was 912 s. Work on `O=C(Nc1ccccc1)c1ccc(N2CCC(NCc3ccc(F)c(F)c3)C2)nc1` (centres undefined) yielded an RP-LC retention time of 568 s. Work on `CCn1cnc(S(=O)(=O)N2CCC(C(=O)NCc3ccc(F)cc3)CC2)c1` yielded an RP-LC retention time of 700 s. For `O=S(=O)(c1ccccc1Br)N1CCc2nc(-c3ccc(F)cc3)ncc2C1`, the RP-LC retention time was 1130 s. With `Cc1cc(N2CCCCC2)nc(NCCNC(=O)Cc2noc3ccccc23)n1` the RP-LC retention time was 580 s. In the case of `CCOc1ccc(NC(=O)c2cc3c(=O)n(CC(C)C)c4ccccc4n3n2)cc1`, the RP-LC retention time was 1150 s. In the case of `Cc1ccc(OCC(=O)Nc2ccc3c(c2)Sc2ncccc2C(=O)N3C)cc1`, the RP-LC retention time was 866 s. `Cc1ccc(N2CCC(NC(=O)Nc3ccc4c(c3)OCCO4)C2=O)cc1C` (centres undefined) showed an RP-LC retention time of 798 s. Work on `CCc1cc(=O)n(CC(=O)Nc2ccccc2CC)c(N2CCOCC2)n1` yielded an RP-LC retention time of 784 s. For `COc1ccc(C(C)NC(=O)C2C(=O)NC3(C)CC2c2ccccc2O3)cc1` (centres undefined), the RP-LC retention time was 747 s. For `O=C(c1cccc2[nH]ccc12)N1CCC2(CC1)N=C(c1ccc(Cl)cc1)NO2`, the RP-LC retention time was 804 s. Compound `Cc1ccc(C(=O)Nc2nc(-c3ccccc3)cs2)cc1[N+](=O)[O-]` has an RP-LC retention time of 1090 s. With `CCn1ncn2cc(S(=O)(=O)Nc3ccccc3C)cc2c1=O` the RP-LC retention time was 863 s. `O=C(Cc1cccnc1)N1CCCn2nc(-c3ccc(F)cc3)cc2C1` showed an RP-LC retention time of 537 s. `CCC(C)(C)NS(=O)(=O)c1cc(-c2nc(C)cs2)n(C)c1C` gave an RP-LC retention time of 1010 s. `CCOc1ccc(N2CC(c3nnc(NC(=O)CCc4ccccc4)o3)CC2=O)cc1` (centres undefined) gave an RP-LC retention time of 726 s. `CC(C)n1c(=O)oc2cc(-c3noc(CNC(=O)Cc4ccc(Cl)cc4)n3)ccc21` gave an RP-LC retention time of 911 s. `COc1ccc(CC(C)(O)CNC(=O)c2cc(Br)ccc2Cl)cc1` (centres undefined) showed an RP-LC retention time of 822 s. With `CCc1ccc(NC(=O)N2CCN(c3cnn4c(CC)nnc4c3)CC2)cc1` the RP-LC retention time was 698 s. For `CCc1nc(-c2csc(S(=O)(=O)N3CCC(C(=O)Nc4ccc(C)cc4Cl)CC3)c2)no1`, the RP-LC retention time was 1080 s. Compound `COC(=O)C1=CN(c2ccc(OC)c(Cl)c2)c2ccc(F)cc2S1(=O)=O` has an RP-LC retention time of 886 s. With `O=C(Nc1ccccc1F)C1COc2ccccc2C1` (centres undefined) the RP-LC retention time was 874 s. With `CCN1CCN(CCNC(=O)c2csc(-c3ccc(N4CCCC4)nc3)n2)CC1` the RP-LC retention time was 550 s. `O=C(CC1CCCN(c2cnn(CC3CC3)c(=O)c2)C1)N1CCC2(CC1)OCCO2` (centres undefined) showed an RP-LC retention time of 706 s. With `Cc1cc(C)nc(Nc2nc(-c3ccccc3)c(CC(=O)O)s2)n1` the RP-LC retention time was 710 s. Compound `Cc1ccc(CN2CCN(CC(=O)Nc3ccc4c(c3)OCCO4)C(=O)C2=O)cc1` has an RP-LC retention time of 733 s. In the case of `O=c1c2scc(-c3ccc(Br)cc3)c2ncn1Cc1ccccn1`, the RP-LC retention time was 938 s. For `O=C(Nc1cccc(-c2nc3ccccc3o2)c1)c1ccc(F)cc1F`, the RP-LC retention time was 994 s. Work on `OCCOCCNCc1ccc(-c2ccc(Cl)cc2)o1` yielded an RP-LC retention time of 644 s. `O=C(C1CCCC1)N1CCCC1c1nc(C2CCOCC2)no1` (centres undefined) showed an RP-LC retention time of 725 s. For `O=C(NCc1ccc2c(c1)OCO2)C1CC(=O)N(CCc2c[nH]c3ccc(Cl)cc23)C1` (centres undefined), the RP-LC retention time was 799 s. In the case of `CCCNC(=O)N1CCN(c2nc3ccccc3n(Cc3ccccc3)c2=O)CC1`, the RP-LC retention time was 863 s. `CN1c2ccc(Cl)cc2C(=O)NC12CCN(C(=O)c1cccc(F)c1)CC2` gave an RP-LC retention time of 808 s. `O=C(c1ccc2c(c1)OCO2)N1CC2CN(S(=O)(=O)c3ccc(F)cc3)CC(C1)O2` gave an RP-LC retention time of 774 s. `COc1ccc(NC(=O)N2CCCC(Cn3cnc4cccnc43)C2)cc1` (centres undefined) showed an RP-LC retention time of 610 s.
